Source: patent publication US20220087987A1, “A METHOD FOR TREATING SWI/SNF COMPLEX-DEFICIENT CANCERS COMPRISING GLUTATHIONE (GSH) METABOLIC PATHWAY INHIBITOR” (National Cancer Center, priority 2018, published 2022)
Like-named read-outs stand apart in the source and are kept apart here. Peptide text beside a SMILES is read from it. * marks the point of attachment. Cbz = O=C(OCc1ccccc1)*; CH2F = FC*

What was measured:
Format in all cases: cell-based, human
[1] = Drug library screen, cell viability (CellTiter-Glo); conditions: human
How it was run: (§1)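 Luminescent ATP read-out (CellTiter-Glo) at day 5, normalised to solvent (DMSO) controls, in paired HCT116 lines, ARID1A knockout versus wild type. Candidates selected where KO cells fell below 40% viability and WT cells stayed above 80%.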

ARID1A-KO HCT116 cells = assay: as above; conditions: for viability at 10 µM: Homo sapiens, HCT-116, 120 h, read-out: Cell viability, KO
How it was run: as §1

ARID1A-WT HCT116 cells = assay: as above
How it was run: as §1

[2] = HCT116 ARID1A-WT, 10 μM for 5 days, relative to cells treated with solvent (DMSO), read-out: Cell viability, WT
[3] = HCT116 ARID1A-KO, 10 μM for 5 days, relative to cells treated with solvent (DMSO)
[4] = HCT116 ARID1A-WT, 10 μM for 5 days, relative to cells treated with solvent (DMSO)

| Compound | viability at 5 days, 10 μM [1, 2] | viability at 10 µM (ARID1A-KO HCT116 cells; [3]) | Cell viability, WT (ARID1A-WT HCT116 cells; [4]) | Cell viability, KO (ARID1A-KO HCT116 cells; [3]) | also measured |
| --- | --- | --- | --- | --- | --- |
| Cc1cn(-c2cc(NC(=O)c3ccc(C)c(Nc4nccc(-c5cccnc5)n4)c3)cc(C(F)(F)F)c2)cn1 [nilotinib] | 85.8% | 91.6% |  |  |  |
| C/C=C/C/C=C/CCC(=O)[C@H]1O[C@H]1C(N)=O [Cerulenin] | 70% | 68.6% |  |  |  |
| C=C(C)[C@H]1Cc2c(ccc3c2O[C@@H]2COc4cc(OC)c(OC)cc4[C@@H]2C3=O)O1 [Rotenone] |  | 6.99% |  |  | viability [1, 2]: 5.52% |
| O=C1Cc2c([nH]c3ccc(Br)cc23)-c2ccccc2N1 [Kenpaullone] | 66.2% | 35% |  |  |  |
| CCCOc1ccccc1-c1nc2nn[nH]c2c(=O)[nH]1 [Zaprinast] | 93.5% | 82.6% |  |  |  |
| CC(C)[C@@H]1NC(=O)[C@H](C)OC(=O)[C@@H](C(C)C)NC(=O)[C@@H](C(C)C)OC(=O)[C@H](C(C)C)NC(=O)[C@H](C)OC(=O)[C@@H](C(C)C)NC(=O)[C@@H](C(C)C)OC(=O)[C@H](C(C)C)NC(=O)[C@H](C)OC(=O)[C@@H](C(C)C)NC(=O)[C@@H](C(C)C)OC1=O [Valinomycin] |  | 4.17% |  |  | viability [1, 2]: 3.65% |
| NNCCc1ccccc1 [Phenelzine] | 101% | 119% |  |  |  |
| CCOC(=O)C1=C(C)NC(=S)NC1c1cccc(O)c1 (stereo not shown) [Monastrol] | 102% | 104% |  |  |  |
| C[C@@H]1C[C@H]2[C@@H]3CCC4=CC(=O)C=C[C@]4(C)[C@@]3(F)[C@@H](O)C[C@]2(C)[C@@]1(O)C(=O)CO [Dexamethasone] | 212% | 162% |  |  |  |
| Oc1nc(-c2ccc(C(F)(F)F)cc2)nc2c1CSCC2 [XAV939] | 87% | 111% |  |  |  |
| Cn1nnc2c(C(N)=O)ncn2c1=O [temozolomide] | 84.4% | 104% |  |  |  |
| Cc1c(C)c2c(c(C)c1O)CCC(C)(COc1ccc(CC3SC(=O)NC3=O)cc1)O2 (stereo not shown) [Troglitazone] | 101% | 94.7% |  |  |  |
| CC[C@H](C)C(=O)O[C@H]1C[C@@H](C)C=C2C=C[C@H](C)[C@H](CC[C@@H]3C[C@@H](O)CC(=O)O3)[C@H]21 [Lovastatin] | 132% | 85.2% |  |  |  |
| COc1cc2c(NC3CCN(C(C)C)CC3)nc(C3CCCCC3)nc2cc1OCCCN1CCCC1 [UNC0638] | 2.6% | 3.8% |  |  |  |
| C[C@H]1O[C@@H](n2cnc3c(N)ncnc32)C[C@@H]1O [2′,5′-dideoxyadenosine] |  | 172% |  |  | viability [1, 2]: 198% |
| CN(C)CC[C@H](CSc1ccccc1)Nc1ccc(S(=O)(=O)NC(=O)c2ccc(N3CCN(Cc4ccccc4-c4ccc(Cl)cc4)CC3)cc2)cc1[N+](=O)[O-] [ABT-737] | 94.4% | 89.5% |  |  |  |
| C[C@@H]1C[C@@H]([C@H](O)CC2CC(=O)NC(=O)C2)C(=O)[C@@H](C)C1 [Cycloheximide] |  | 10.1% |  |  | viability [1, 2]: 9.33% |
| C[C@@]1(CO)[C@H](O)CC[C@@]2(C)[C@H]1CC[C@H]1C[C@@H]3C[C@@]12CC[C@]3(O)CO [Aphidicolin] | 14% | 11.9% |  |  |  |
| O=c1c(-c2ccc(O)cc2)coc2cc(O)cc(O)c12 [Genistein] |  | 118% |  |  | viability [1, 2]: 173% |
| CO[C@H]1C[C@@H]2CC[C@@H](C)[C@@](O)(O2)C(=O)C(=O)N2CCCC[C@H]2C(=O)O[C@H]([C@H](C)C[C@@H]2CC[C@@H](OCCO)[C@H](OC)C2)CC(=O)[C@H](C)/C=C(\C)[C@@H](O)[C@@H](OC)C(=O)[C@H](C)C[C@H](C)/C=C/C=C/C=C/1C [everolimus] | 77.4% | 77.1% |  |  |  |
| CC1=NS(=O)(=O)c2cc(Cl)ccc2N1 [Diazoxide] | 103% | 115% |  |  |  |
| O=C([O-])c1ccccc1O.[Na+] [Sodium salicylate] |  |  |  |  | viability [1]: 177%; viability at 10 µM (ARID1A-KO HCT116 cells): 125% |
| CC(C)C[C@H](NC(=O)[C@H](Cc1ccccc1)NC(=O)c1cnccn1)B(O)O [bortezomib] | 3.06% | 5.81% |  |  |  |
| O[C@H]1[C@H]2[C@H](O)CCCN2C[C@H]1O [Swainsonine] |  | 110% |  |  | viability [1, 2]: 115% |

| Compound | viability at 5 days, 10 μM [1, 2] | viability at 10 µM (ARID1A-KO HCT116 cells; [3]) | Cell viability, WT (ARID1A-WT HCT116 cells; [4]) | Cell viability, KO (ARID1A-KO HCT116 cells; [3]) | also measured |
| --- | --- | --- | --- | --- | --- |
| C[C@@H](Oc1cc(-c2cnn(C3CCNCC3)c2)cnc1N)c1c(Cl)ccc(F)c1Cl [crizotinib] | 2.29% | 5.88% |  |  |  |
| COc1cc2ncnc(Nc3ccc(F)c(Cl)c3)c2cc1OCCCN1CCOCC1 [gefitinib] | 54.5% | 72.4% |  |  |  |
| N=C(N)NC(=O)c1nc(Cl)c(N)nc1N [Amiloride] | 106% | 113% |  |  |  |
| COc1c(C=O)c(O)cc2c1C(=O)c1ccccc1C2=O [Damnacanthal] | 185% | 138% |  |  |  |
| Cn1cnc2c(NCc3ccccc3)nc(NCCO)nc21 [Olomoucine] | 173% |  |  |  | viability at 10 µM (ARID1A-KO HCT116 cells): 122% |
| CNCc1ccc(-c2[nH]c3cc(F)cc4c3c2CCNC4=O)cc1 [AG014699 (Rucaparib), Rucaparib] | 18.7% | 16% |  |  |  |
| Cl.Cl.Cl.Cl.Cl.Cl.Cl.Cl.c1cc(CN2CCCNCCNCCCNCC2)ccc1CN1CCCNCCNCCCNCC1 [AMD3100 octahydrochloride] |  |  |  |  | Cell viability, WT (ARID1A-WT HCT116 cells): 102.6908; Cell viability, KO (ARID1A-KO HCT116 cells): 102.0251 |
| O=c1cc(-c2cccc3c2Sc2ccccc2S3)oc(N2CCOCC2)c1 [ATM kinase inhibitor] |  |  | 70.42 | 83.21 |  |
| O=C(Nc1cccc(NC(=O)c2cccc(O)c2O)c1)c1cccc(O)c1O [MST-312] |  |  | 7.363 | 7.703 |  |
| CCCCCCCC(=O)OCCOC(=O)CCCCCCC [Dioctanoylglycol] |  |  | 99.78 | 109.4112 |  |
| CN(C)S(=O)(=O)c1ccc2c(c1)/C(=C/c1cc3c([nH]1)CCCC3)C(=O)N2 [SU6656] |  |  |  |  | Cell viability, WT (ARID1A-WT HCT116 cells): 124.1846; Cell viability, KO (ARID1A-KO HCT116 cells): 170.9958 |
| O=CN1CCN(c2ccc(/C=C3\C(=O)Nc4ccccc43)cc2)CC1 [SU4984] |  |  | 129.369 | 172.2779 |  |
| NC(=O)c1ccc(-c2nc(-c3ccccn3)c(-c3ccc4c(c3)OCO4)[nH]2)cc1 [SB 431542] |  |  | 85.04 | 85.02 |  |
| CN(C)c1nc2c(Br)c(Br)c(Br)c(Br)c2[nH]1 [DMAT] |  |  | 113.7397 | 116.7866 |  |
| CN(C)CCCCC(=O)Nc1ccc(NC(=S)NC(=O)c2ccc(C(C)(C)C)cc2)cc1 [Tenovin-6] |  |  | 2.514 | 5.579 |  |
| Cytostatin |  |  | 10.14 | 7.493 |  |
| C1=Cc2nc1cc1ccc([nH]1)c(-c1ccccc1)c1nc(cc3ccc([nH]3)c2-c2ccccc2)C=C1 [5,15-DPP] |  |  | 90.1195 | 98.73 |  |
| CC(C)Cn1c(=O)n(C)c(=O)c2[nH]cnc21 [IBMX] |  |  | 159.7152 | 114.2526 |  |
| O=C1Nc2ccccc2C2(CCN(CCc3ccc(C(F)(F)F)cc3)CC2)O1 [RS 102895] |  |  | 37.34 | 47.58 |  |
| COC(=O)C[C@H](NC(=O)[C@H](C)NC(=O)[C@@H](NC(=O)OCc1ccccc1)C(C)C)C(=O)CF [Z-VAD-FMK] (Cbz-Val-Ala-Asp(OMe)-CH2F) |  |  | 177.3841 | 128.7264 |  |
| CCCCCCCCCCCCCCCc1cccc(O)c1C(=O)O [Anacardic acid] |  |  | 102.71 | 112.6464 |  |
| COc1cc2ncnc(Nc3cccc(Cl)c3)c2cc1OC [AG1478] |  |  | 149.2606 | 129.9442 |  |
| C=CCNC1=C2C[C@@H](C)C[C@H](OC)[C@H](O)[C@@H](C)/C=C(\C)[C@H](OC(N)=O)[C@@H](OC)/C=C\C=C(/C)C(=O)NC(=CC1=O)C2=O [17-AAG] |  |  | 8.063 | 8.214 |  |
